Assay results taken from EP4603105A1, “PHARMACEUTICAL COMPOSITION CONTAINING CYCLIC COMPOUND HAVING SELECTIVE KRAS INHIBITORY EFFECT AGAINST HRAS AND NRAS” (CHUGAI SEIYAKU KABUSHIKI KAISHA, priority 2022, dated 2024).
*1 amine or outer side, *2 acyl side, *3 side chain or, on linkers, in order; H or OH if unused. Where a SMILES comes first, the peptide text is derived from it. Bridges are numbered along the chain shown (N, C = ends). [ ]: non-standard residue; d: D form. The star is where a group is joined. hPhe(3-Cl-4-CF3) = N[C@@H](CCc1ccc(C(F)(F)F)c(Cl)c1)C(=O)O; NPrPhe(4-CF3) = CCCN[C@@H](Cc1ccc(C(F)(F)F)cc1)C(=O)O; X41 = CCCN([C@@H](Cc1ccc(OC)cc1)C(=O)[*:2])[*:1]; NMeGly(cPent) = CN[C@H](C(=O)O)C1CCCC1; Hyp = O=C(O)[C@@H]1C[C@@H](O)CN1; NMeD = CN[C@@H](CC(=O)O)C(=O)O; NMeL = CN[C@@H](CC(C)C)C(=O)O; Morpholide = C1CN(*)CCO1; NMeA = CN[C@@H](C)C(=O)O; Ac5c = NC1(C(=O)O)CCCC1; Aze = O=C(O)[C@@H]1CCN1; Ac4c = NC1(C(=O)O)CCC1; Sar = CNCC(=O)O

Experiments:
[1] = tested on: human lung cancer strain NCI-H441; format: cell-based
Procedure, shortened: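 Readout: […] after the ATP-based reagent. Compound: serial dilutions in dimethyl sulfoxide.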

[2] = target: GDP-bound NRAS wild-type protein (Homo sapiens, UniProt P01111); assay: Binding to NRAS by surface plasmon resonance (SPR), KD and KD ratio to KRAS
GDP-bound NRAS wild-type protein, sequence (P01111 whole entry): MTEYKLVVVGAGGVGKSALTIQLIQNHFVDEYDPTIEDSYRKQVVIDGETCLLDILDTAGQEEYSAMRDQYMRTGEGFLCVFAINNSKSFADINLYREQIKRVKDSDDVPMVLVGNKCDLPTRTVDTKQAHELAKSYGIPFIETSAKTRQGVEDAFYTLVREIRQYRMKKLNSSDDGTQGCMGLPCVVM
Procedure, shortened: (§1)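 GDP-bound biotin-Avi RAS captured at ~100–300 RU, 30°C, pH 7.4 HBS containing 10 µM GDP, 10 mM MgCl2, 1 mM DTT, 0.01% Tween 20 and 4% DMSO. KD by 1:1 fitting.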

HRAS wild-type protein = HRAS wild-type protein (Homo sapiens, UniProt P01112); assay: Binding to HRAS by surface plasmon resonance (SPR), KD and KD ratio to KRAS
HRAS wild-type protein, sequence (P01112 whole entry): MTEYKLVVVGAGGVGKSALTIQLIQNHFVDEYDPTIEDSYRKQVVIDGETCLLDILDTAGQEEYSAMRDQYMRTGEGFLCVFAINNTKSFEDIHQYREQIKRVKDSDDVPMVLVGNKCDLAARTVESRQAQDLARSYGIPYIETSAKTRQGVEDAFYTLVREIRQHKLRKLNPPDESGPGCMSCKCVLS
Procedure, shortened: as §1

[3] = ratio of KD for GDP-bound NRAS wild-type protein to KD for KRAS
[4] = ratio of KD for HRAS wild-type protein to KD for KRAS

Structure (SMILES)	IC50 [1] [nM]	NRAS /KRAS [2, 3]	HRAS /KRAS (HRAS wild-type protein; [4])	NRAS /KRAS ([2]; ratio of the KD value with respect to GDP-bound NRAS wild-type protein to the KD value with respect to KRAS)	HRAS /KRAS (HRAS wild-type protein; ratio of the KD value with respect to HRAS wild-type protein to the KD value with respect to KRAS)
CCCN1C(=O)[C@@H]2CCN2C(=O)[C@H](C)N(C)C(=O)[C@H]([C@@H](C)CC)NC(=O)[C@H](CC(C)C)N(C)C(=O)C[C@@H](C(=O)N2CCOCC2)N(C)C(=O)[C@H](C2CCCC2)N(C)C(=O)C2(CCCC2)NC(=O)[C@@H]2CCCN2C(=O)[C@H](CCc2ccc(C(F)(F)F)c(Cl)c2)NC(=O)CN(C)C(=O)[C@@H]1Cc1ccc(OC)cc1 [PP0134] ([NMeL]I[NMeA][Aze][X41][Sar][hPhe(3-Cl-4-CF3)]P[Ac5c][NMeGly(cPent)][NMeD]-Morpholide; lactam N-11)	18.5	C (A compound having a KD ratio of 0.1 or more and less than 3 is denoted as C)	B (a compound having 3 or more and less than 10 is denoted as B)	–	–
CCC(CC)[C@H]1C(=O)N(C)[C@H](C(=O)N(C)C)CC(=O)N(C)[C@H]2CCC/C=C/c3ccc(cc3)C[C@@H](C(=O)N(C)CC(=O)N[C@@H](CCc3ccc(Cl)c(Cl)c3)C(=O)N3CCC[C@H]3C(=O)NC3(CC(C)(C)C3)C(=O)N1C)N1CC/C=C\C[C@@H](C1=O)N(C)C(=O)CN(C)C(=O)[C@H]([C@@H](C)CC)NC2=O [PP2603]	25.7	AA (a compound having 20 or more is denoted as AA)	A (a compound having 10 or more and less than 20 is denoted as A)	–	–
CCCN1C(=O)CN(C)C(=O)CN(C)C(=O)[C@H]([C@@H](C)CC)NC(=O)[C@H](CC(C)C)N(C)C(=O)C[C@@H](C(=O)N(C)C)NC(=O)[C@H](C2CCCC2)N(C)C(=O)C2(CCC2)NC(=O)[C@@H]2C[C@@H](OCC)CN2C(=O)[C@H](CCc2ccc(C(F)(F)F)c(Cl)c2)NC(=O)CN(C)C(=O)[C@@H]1Cc1ccc(C(F)(F)F)cc1 [PP0360] ([NMeL]I[Sar][Sar][NPrPhe(4-CF3)][Sar][hPhe(3-Cl-4-CF3)][Hyp](Et)[Ac4c][NMeGly(cPent)]D-NMe2; lactam N-11)	18	B (a compound having 3 or more and less than 10 is denoted as B)	C (A compound having a KD ratio of 0.1 or more and less than 3 is denoted as C)	–	–

Now those with a lower IC50 [1], led by results:

IC50 [1] [nM]	Structure (SMILES)	NRAS /KRAS [2, 3]	HRAS /KRAS (HRAS wild-type protein; [4])	NRAS /KRAS ([2]; ratio of the KD value with respect to GDP-bound NRAS wild-type protein to the KD value with respect to KRAS)	HRAS /KRAS (HRAS wild-type protein; ratio of the KD value with respect to HRAS wild-type protein to the KD value with respect to KRAS)
4.6	CCCN1C(=O)[C@@H]2CCN2C(=O)[C@H](C)N(C)C(=O)[C@H]([C@@H](C)CC)NC(=O)[C@H](CC(C)C)N(C)C(=O)C[C@@H](C(=O)N2CCOCC2)N(C)C(=O)[C@H](C2CCCC2)N(C)C(=O)C2(CCCC2)NC(=O)[C@@H]2CCCN2C(=O)[C@H](CCc2ccc(C(F)(F)F)c(Cl)c2)NC(=O)CN(C)C(=O)[C@@H]1Cc1ccc(C(F)(F)F)cc1 [PP0053] ([NMeL]I[NMeA][Aze][NPrPhe(4-CF3)][Sar][hPhe(3-Cl-4-CF3)]P[Ac5c][NMeGly(cPent)][NMeD]-Morpholide; lactam N-11)	C (A compound having a KD ratio of 0.1 or more and less than 3 is denoted as C)	C (A compound having a KD ratio of 0.1 or more and less than 3 is denoted as C)	–	–
6.6	CCO[C@@H]1C[C@H]2C(=O)NC3(CC(C)(C)C3)C(=O)N(C)[C@@H](C3CCCC3)C(=O)N(C)[C@H](C(=O)N(C)C)CC(=O)N(C)[C@H]3CCCCCCc4ccc(cc4)C[C@@H](C(=O)N(C)CC(=O)N[C@@H](CCc4ccc(Cl)c(Cl)c4)C(=O)N2C1)N1CC/C=C\C[C@@H](C1=O)N(C)C(=O)CN(C)C(=O)[C@H]([C@@H](C)CC)NC3=O [PP3071]	A (a compound having 10 or more and less than 20 is denoted as A)	B (a compound having 3 or more and less than 10 is denoted as B)	–	–
4.9	C=CC[C@H]1C(=O)N[C@@H]([C@@H](C)CC)C(=O)N(C)CC(=O)N(C)[C@H]2CCCCN(C2=O)[C@@H](Cc2ccc(C(F)(F)F)cc2)C(=O)N(C)CC(=O)N[C@@H](CCc2cc(F)c(C(F)(F)F)c(F)c2)C(=O)N2C[C@H](OCC)C[C@H]2C(=O)NC2(CCC2)C(=O)N(C)[C@@H](C2CCCC2)C(=O)N(C)[C@H](C(=O)N2CCOCC2)CC(=O)N1C [PP0710]	–	–	C (A compound having a KD ratio of 0.1 or more and less than 3 is denoted as C)	B (a compound having 3 or more and less than 10 is denoted as B)
